Measured values reported in US20230168259A1, “METHOD FOR PREDICTING THE COURSE OF A VIRAL DISEASE” (Leibniz-Institut für Virologie, priority 2020, published 2023).

Legend:
SARS-CoV-2 = experiment: Virus titer (plaque assay on VeroE6 cells) in organs of SARS-CoV-2 infected hamsters treated with letrozole or placebo; format: in vivo, Syrian golden hamster; details: 0.18 mg kg-1 i.p. daily, 3 d p.i., compared to placebo
MIP-1α = system: MIP-1α; parameters: species or system Syrian golden hamster; details: hamster, in vivo, ip
MIP-1β = system: MIP-1β; parameters: species or system Syrian golden hamster; details: hamster, in vivo, ip
[1] = SARS-CoV-2-infected female hamsters
[2] = SARS-CoV-2-infected male hamsters

N#Cc1ccc(C(c2ccc(C#N)cc2)n2cncn2)cc1 [letrozole]
lower virus titers: virus titer in brain (SARS-CoV-2; [1]) | virus titer in lungs (SARS-CoV-2; [1]) | virus titer in plasma (SARS-CoV-2; [1]) | virus titer in brain (SARS-CoV-2; [2]) | virus titer in lungs (SARS-CoV-2; [2]) | virus titer in testis (SARS-CoV-2; [2])
lower: expression level of MIP-1α in lungs (MIP-1α) | expression level of MIP-1β in lungs (MIP-1β)
